This passage reports cells killed results from patent US12054721B2, “Compositions and methods for 3-hydroxypropionic acid production” (CARGILL, INCORPORATED, priority 2010, dated 2024).

This assay relates to yeast cells. Description: EMS mutagenesis of yeast cells (kill rate). The class given is cell-based. The note with it: 3 μL EMS in 200 μL cell suspension (OD600 around 10), approximately one hour. The protocol: For example, yeast cells from a fresh YP (yeast extract/peptone)+20 g/L glucose plate or liquid culture (OD600 1-4) are resuspended in sterile water to an OD600 of around 10. 200 μL aliquots of this cell suspension are pipetted into individual tubes and exposed to 3 μL […] (EMS) for approximately one hour, which kills around 65% of the cells. Higher EMS concentrations can also be used to increase the kill rate. After exposure, cells are neutralized with 5% sodium thiosulfate, washed in PBS buffer, recovered in rich media for approximately four hours, and cultured on selective media. Mock samples (no EMS) are also run to ensure that the conditions are selective. Alternatively, cells can be mutagenized using UV irradiation.

For `CCOS(C)(=O)=O` [ethane methyl sulfonate (EMS), ethane methyl sulfonate], the cells killed result is “around 65%”.
